Test results from patent publication US20240349720A1, “ANTIMICROBIAL COMPOSITIONS COMPRISING ALKYL ETHER CARBOXYLIC ACIDS AND METHODS OF USE THEREOF” (ECOLAB USA INC., priority 2023, published 2024).

The substances below were run on E. coli (assay: Food contact sanitizing efficacy (AOAC Method 960.09)). Conditions: 500 ppm surfactant in 500 ppm synthetic hard water; pH adjusted to 2.1 with phosphoric acid; 30 seconds exposure.
Assay type: cell-based
Method: (§1) Additional testing to confirm food contact sanitizing efficacy (AOAC Method 960.09) comparing three AEC surfactants was conducted where the surfactants were diluted in 500 ppm synthetic hard water and pH adjusted to 2.1 with phosphoric acid. The evaluated AEC surfactants are further described above in Table 2.

| Substance | Log reduction E. coli [log] |
| --- | --- |
| Capryleth-4 Carboxylic acid | >7.59 |
| Capryleth-6 Carboxylic acid | 1.98 |
| Capryleth-9 Carboxylic acid | <1.19 |

Same assay, conditions: 750 ppm surfactant in 500 ppm synthetic hard water; pH adjusted to 2.1 with phosphoric acid; 30 seconds exposure

| Substance | Log reduction E. coli [log] |
| --- | --- |
| Capryleth-4 Carboxylic acid | >7.59 |
| Capryleth-6 Carboxylic acid | 3.44 |
| Capryleth-9 Carboxylic acid | <1.19 |

Same assay, conditions: 1000 ppm surfactant in 500 ppm synthetic hard water; pH adjusted to 2.1 with phosphoric acid; 30 seconds exposure

| Substance | Log reduction E. coli [log] |
| --- | --- |
| Capryleth-4 Carboxylic acid | >7.59 |
| Capryleth-6 Carboxylic acid | >7.59 |
| Capryleth-9 Carboxylic acid | <1.19 |

Each substance was assayed on S. aureus in the same assay as above. Conditions: 500 ppm surfactant in 500 ppm synthetic hard water; pH adjusted to 2.1 with phosphoric acid; 30 seconds exposure.
Assay type: cell-based
Method: as §1

| Substance | Log reduction S. aureus [log] |
| --- | --- |
| Capryleth-4 Carboxylic acid | >7.34 |
| Capryleth-6 Carboxylic acid | >7.34 |
| Capryleth-9 Carboxylic acid | 5.31 |

Same assay, conditions: 750 ppm surfactant in 500 ppm synthetic hard water; pH adjusted to 2.1 with phosphoric acid; 30 seconds exposure

| Substance | Log reduction S. aureus [log] |
| --- | --- |
| Capryleth-4 Carboxylic acid | >7.34 |
| Capryleth-6 Carboxylic acid | >7.34 |
| Capryleth-9 Carboxylic acid | >7.34 |

Same assay, conditions: 1000 ppm surfactant in 500 ppm synthetic hard water; pH adjusted to 2.1 with phosphoric acid; 30 seconds exposure

| Substance | Log reduction S. aureus [log] |
| --- | --- |
| Capryleth-4 Carboxylic acid | >7.34 |
| Capryleth-6 Carboxylic acid | >7.34 |
| Capryleth-9 Carboxylic acid | >7.34 |
